Laboratory results taken from PubChem BioAssay AID256 (DTP/NCI, 2004).
Values joined by “and” are separate entries in the source; they are usually repeats but may differ in a detail not shown here. Equal values may be shown once. Toxic doses and inconclusive results are not listed. The calls were made as follows: active = survival T/C of 150% or more; inactive = T/C below 125% in these data.

Test system: CD2F1 mice, L1210 leukemia ip, survival T/C
Test: NCI In Vivo Anticancer Drug Screen. Data for tumor model L1210 Leukemia (intraperitoneal) in CD2F1 (CDF1) mice
Conditions: higher = longer survival
Outline: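 Ratio T/C, where T is the treated-group value and C the vehicle-dosed control value, from mice implanted with a transplantable tumor.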

[1] = endpoint: mean survival time, dose: 100.0 mg/kg/injection, schedule: Q01DX009 (ip), vehicle: saline with Tween-80
[2] = endpoint: mean survival time, dose: 100.0 mg/kg/injection, schedule: Q04DX003 (ip), vehicle: saline with Tween-80
[3] = endpoint: mean survival time, dose: 200.0 mg/kg/injection, schedule: Q01DX009 (ip), vehicle: saline with Tween-80
[4] = endpoint: mean survival time, dose: 200.0 mg/kg/injection, schedule: Q04DX003 (ip), vehicle: saline with Tween-80
[5] = endpoint: mean survival time, dose: 400.0 mg/kg/injection, schedule: Q01DX009 (ip), vehicle: saline with Tween-80
[6] = endpoint: mean survival time, dose: 400.0 mg/kg/injection, schedule: Q04DX003 (ip), vehicle: saline with Tween-80
[7] = endpoint: mean survival time, dose: 100.0 mg/kg/injection, schedule: Q01DX001 (ip), vehicle: saline with Tween-80
[8] = endpoint: mean survival time, dose: 200.0 mg/kg/injection, schedule: Q01DX001 (ip), vehicle: saline with Tween-80
[9] = endpoint: mean survival time, dose: 100.0 mg/kg/injection, schedule: Q04DX002 (ip), vehicle: saline with Tween-80
[10] = endpoint: mean survival time, dose: 200.0 mg/kg/injection, schedule: Q04DX002 (ip), vehicle: saline with Tween-80
[11] = endpoint: mean survival time, dose: 50.0 mg/kg/injection, schedule: Q01DX009 (ip), vehicle: saline with Tween-80

Measured: T/C

CC1(C)CC2(OC2c2ccccc2[N+](=O)[O-])C(=O)c2ccccc21 (stereo unspecified)
inactive: [1] 98 % of control | [2] 96 % of control | [3] 96 % of control | [4] 98 % of control | [5] 96 % of control | [6] 91 % of control

Nc1cn2ncnc2c(=O)[nH]1
inactive: endpoint: median survival time, dose: 50.0 mg/kg/injection, schedule: Q01DX005 (ip), vehicle: saline 106 % of control | endpoint: median survival time, dose: 100.0 mg/kg/injection, schedule: Q01DX005 (ip), vehicle: saline 106 % of control | endpoint: median survival time, dose: 200.0 mg/kg/injection, schedule: Q01DX005 (ip), vehicle: saline 113 % of control

COc1ccc(NC(=O)CC(C)C(=O)O)cc1 (stereo unspecified)
inactive: [2] 101 % of control | [4] 100 % of control | [6] 101 % of control

CC[N+](C)(CC)CCOC(=O)c1ccccc1Oc1ccc(C)cc1
inactive: endpoint: mean survival time, dose: 25.0 mg/kg/injection, schedule: Q01DX009 (ip), vehicle: saline 107 % of control | endpoint: mean survival time, dose: 50.0 mg/kg/injection, schedule: Q01DX009 (ip), vehicle: saline 107 % of control

CC(c1ccccc1)n1cncc1C(=O)NN(C)C (stereo unspecified)
inactive: [7] 96 % of control | [8] 93 % of control | endpoint: mean survival time, dose: 400.0 mg/kg/injection, schedule: Q01DX001 (ip), vehicle: saline with Tween-80 91 % of control

NC1=NC(CCc2ccccc2)N(c2ccc3ccccc3c2)C(N)=N1 (stereo unspecified)
inactive: endpoint: mean survival time, dose: 4.7 mg/kg/injection, schedule: Q04DX003 (ip), vehicle: saline 104 % of control | endpoint: mean survival time, dose: 9.4 mg/kg/injection, schedule: Q04DX003 (ip), vehicle: saline 100 % of control | endpoint: mean survival time, dose: 18.8 mg/kg/injection, schedule: Q04DX003 (ip), vehicle: saline 100 % of control

Cc1ccc(NC(=O)OCCSC(=O)COc2ccc(Cl)cc2Cl)cc1
inactive: [2] 98 % of control | [4] 98 % of control | [6] 93 % of control

COC(=O)C1(C)CCC(=O)O1 (stereo unspecified)
inactive: [9] 98 % of control | [10] 98 % of control | endpoint: mean survival time, dose: 400.0 mg/kg/injection, schedule: Q04DX002 (ip), vehicle: saline with Tween-80 102 % of control

Cc1ccc(C(=O)[O][Hg][CH2]C2COC([CH2][Hg][O]C(=O)c3ccc(C)cc3)CO2)cc1 (stereo unspecified)
inactive: endpoint: mean survival time, dose: 3.12 mg/kg/injection, schedule: Q01DX009 (ip), vehicle: Klucel (hydroxypropylcellulose) (HPC) 100 % of control and 106 % of control | endpoint: mean survival time, dose: 6.25 mg/kg/injection, schedule: Q01DX009 (ip), vehicle: Klucel (hydroxypropylcellulose) (HPC) 101 % of control and 105 % of control | endpoint: mean survival time, dose: 12.5 mg/kg/injection, schedule: Q01DX009 (ip), vehicle: Klucel (hydroxypropylcellulose) (HPC) 98 % of control and 108 % of control | endpoint: mean survival time, dose: 25.0 mg/kg/injection, schedule: Q01DX009 (ip), vehicle: Klucel (hydroxypropylcellulose) (HPC) 98 % of control and 108 % of control | endpoint: mean survival time, dose: 50.0 mg/kg/injection, schedule: Q01DX009 (ip), vehicle: Klucel (hydroxypropylcellulose) (HPC) 104 % of control

CC1(C)OC2C(C3N(c4ccccc4)CCN3c3ccccc3)OC(n3ccc(=O)[nH]c3=O)C2O1 (stereo unspecified)
inactive: endpoint: mean survival time, dose: 12.5 mg/kg/injection, schedule: Q01DX005 (ip), vehicle: distilled water + Tween-80 97 % of control | endpoint: mean survival time, dose: 25.0 mg/kg/injection, schedule: Q01DX005 (ip), vehicle: distilled water + Tween-80 94 % of control | endpoint: mean survival time, dose: 50.0 mg/kg/injection, schedule: Q01DX005 (ip), vehicle: distilled water + Tween-80 94 % of control | endpoint: mean survival time, dose: 100.0 mg/kg/injection, schedule: Q01DX005 (ip), vehicle: distilled water + Tween-80 91 % of control | endpoint: mean survival time, dose: 200.0 mg/kg/injection, schedule: Q01DX005 (ip), vehicle: distilled water + Tween-80 96 % of control

Cc1ccc(NC(=O)OCCOc2ccc(Cl)cc2)cc1C
inactive: [11] 96 % of control | [1] 92 % of control | [3] 87 % of control

COc1cc(NC(C)=O)ccn1
inactive: [1] 95 % of control | [3] 96 % of control | [5] 102 % of control

CC(C)(CCC(=O)O)C(=O)O
inactive: [11] 100 % of control | [1] 98 % of control | endpoint: mean survival time, dose: 100.0 mg/kg/injection, schedule: Q04DX003 (ip), vehicle: saline 102 % of control | [3] 98 % of control | endpoint: mean survival time, dose: 200.0 mg/kg/injection, schedule: Q04DX003 (ip), vehicle: saline 96 % of control

COc1ccc(Cc2ccc(OC)c(OC)c2)cc1OC
inactive: endpoint: median survival time, dose: 25.0 mg/kg/injection, schedule: Q01DX005 (ip), vehicle: saline with Tween-80 96 % of control | endpoint: median survival time, dose: 25.0 mg/kg/injection, schedule: Q04DX003 (ip), vehicle: saline 100 % of control | endpoint: median survival time, dose: 50.0 mg/kg/injection, schedule: Q01DX005 (ip), vehicle: saline with Tween-80 98 % of control | endpoint: median survival time, dose: 50.0 mg/kg/injection, schedule: Q04DX003 (ip), vehicle: saline 100 % of control | endpoint: median survival time, dose: 100.0 mg/kg/injection, schedule: Q01DX005 (ip), vehicle: saline with Tween-80 98 % of control | endpoint: median survival time, dose: 100.0 mg/kg/injection, schedule: Q04DX003 (ip), vehicle: saline 100 % of control | endpoint: median survival time, dose: 200.0 mg/kg/injection, schedule: Q01DX005 (ip), vehicle: saline with Tween-80 97 % of control | endpoint: median survival time, dose: 200.0 mg/kg/injection, schedule: Q04DX003 (ip), vehicle: saline 106 % of control | endpoint: median survival time, dose: 400.0 mg/kg/injection, schedule: Q01DX005 (ip), vehicle: saline with Tween-80 95 % of control | endpoint: median survival time, dose: 400.0 mg/kg/injection, schedule: Q04DX003 (ip), vehicle: saline 100 % of control

CCCCCCCCCCCCCC1CCCC(C)N1 (stereo unspecified)
inactive: endpoint: mean survival time, dose: 50.0 mg/kg/injection, schedule: Q04DX002 (ip), vehicle: saline with Tween-80 89 % of control and 94 % of control | [9] 93 % of control and 94 % of control | [10] 101 % of control

Cc1ccc(N=Nc2sc(N)nc2-c2cccc([N+](=O)[O-])c2)cc1
inactive: [7] 89 % of control | [8] 96 % of control

Cc1ccc2cc(O)ccc2c1
inactive: [11] 97 % of control | [1] 98 % of control

CCOC(=O)/C=C\C1CCCCC1
inactive: [11] 93 % of control | [1] 108 % of control | [3] 104 % of control

Cc1c[n+](Cc2ccccc2)ccn1
inactive: endpoint: mean survival time, dose: 75.0 mg/kg/injection, schedule: Q01DX001 (ip), vehicle: saline 102 % of control | endpoint: mean survival time, dose: 150.0 mg/kg/injection, schedule: Q01DX001 (ip), vehicle: saline 102 % of control | endpoint: mean survival time, dose: 300.0 mg/kg/injection, schedule: Q01DX001 (ip), vehicle: saline 98 % of control

COc1ccc(C(Cn2ccnc2)Sc2ccc(Cl)c(Cl)c2)cc1 (stereo unspecified)
inactive: endpoint: mean survival time, dose: 6.25 mg/kg/injection, schedule: Q01DX009 (ip), vehicle: saline with Tween-80 96 % of control and 103 % of control | endpoint: mean survival time, dose: 12.5 mg/kg/injection, schedule: Q01DX009 (ip), vehicle: saline with Tween-80 103 % of control and 104 % of control | endpoint: mean survival time, dose: 25.0 mg/kg/injection, schedule: Q01DX009 (ip), vehicle: saline with Tween-80 98 % of control and 101 % of control | [11] 96 % of control and 108 % of control | [1] 101 % of control and 105 % of control

O=C1OC(=O)C2=C1C1C3C=CCC3C2N2C=CC=CC12 (stereo unspecified)
inactive: endpoint: mean survival time, dose: 100.0 mg/kg/injection, schedule: Q01DX001 (ip), vehicle: Klucel (hydroxypropylcellulose) (HPC) 105 % of control | endpoint: mean survival time, dose: 200.0 mg/kg/injection, schedule: Q01DX001 (ip), vehicle: Klucel (hydroxypropylcellulose) (HPC) 93 % of control

CC1CCN(N=Nc2ccc(Br)cc2-c2nc(N)c3cc(Br)ccc3n2)CC1
inactive: endpoint: mean survival time, dose: 6.25 mg/kg/injection, schedule: Q01DX005 (ip), vehicle: other 92 % of control | endpoint: mean survival time, dose: 12.5 mg/kg/injection, schedule: Q01DX005 (ip), vehicle: other 103 % of control | endpoint: mean survival time, dose: 25.0 mg/kg/injection, schedule: Q01DX005 (ip), vehicle: other 95 % of control | endpoint: mean survival time, dose: 50.0 mg/kg/injection, schedule: Q01DX005 (ip), vehicle: other 92 % of control | endpoint: mean survival time, dose: 100.0 mg/kg/injection, schedule: Q01DX005 (ip), vehicle: other 92 % of control

OC1CCCCCCCCC1Cl (stereo unspecified)
inactive: [1] 88 % of control | [2] 94 % of control | [4] 93 % of control | [6] 96 % of control
